Legend:
Details in all cases: 1 µM; inhibitor
[1] = molecular target: CDK19 (Homo sapiens, UniProt Q9BWU1)
[2] = molecular target: MEK5 (Homo sapiens, UniProt Q13163)
[3] = molecular target: PIM2 (Homo sapiens, UniProt Q9P1W9)
[4] = molecular target: AKT1 (Homo sapiens, UniProt P31749)
[5] = molecular target: MAP4K4 (Homo sapiens, UniProt O95819)
[6] = molecular target: SGK3 (Homo sapiens, UniProt Q96BR1)
[7] = molecular target: MATK (Homo sapiens, UniProt P42679)
[8] = molecular target: SGK2 (Homo sapiens, UniProt Q9HBY8)
[9] = molecular target: PRKX (Homo sapiens, UniProt P51817)
[10] = molecular target: p38b (Homo sapiens, UniProt Q15759)
Chain of p38b (Q15759 whole entry): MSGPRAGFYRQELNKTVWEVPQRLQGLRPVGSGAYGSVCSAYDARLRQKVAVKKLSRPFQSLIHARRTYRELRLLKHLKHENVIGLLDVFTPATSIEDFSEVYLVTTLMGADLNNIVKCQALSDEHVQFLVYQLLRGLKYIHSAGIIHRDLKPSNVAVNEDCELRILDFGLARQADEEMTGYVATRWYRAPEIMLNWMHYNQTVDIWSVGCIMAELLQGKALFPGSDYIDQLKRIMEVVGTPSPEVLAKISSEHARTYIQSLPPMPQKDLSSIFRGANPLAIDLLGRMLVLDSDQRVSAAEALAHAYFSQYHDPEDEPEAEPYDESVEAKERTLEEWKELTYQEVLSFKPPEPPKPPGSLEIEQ

[11] = molecular target: WNK2 (Homo sapiens, UniProt Q9Y3S1)
Chain of WNK2 (Q9Y3S1 whole entry): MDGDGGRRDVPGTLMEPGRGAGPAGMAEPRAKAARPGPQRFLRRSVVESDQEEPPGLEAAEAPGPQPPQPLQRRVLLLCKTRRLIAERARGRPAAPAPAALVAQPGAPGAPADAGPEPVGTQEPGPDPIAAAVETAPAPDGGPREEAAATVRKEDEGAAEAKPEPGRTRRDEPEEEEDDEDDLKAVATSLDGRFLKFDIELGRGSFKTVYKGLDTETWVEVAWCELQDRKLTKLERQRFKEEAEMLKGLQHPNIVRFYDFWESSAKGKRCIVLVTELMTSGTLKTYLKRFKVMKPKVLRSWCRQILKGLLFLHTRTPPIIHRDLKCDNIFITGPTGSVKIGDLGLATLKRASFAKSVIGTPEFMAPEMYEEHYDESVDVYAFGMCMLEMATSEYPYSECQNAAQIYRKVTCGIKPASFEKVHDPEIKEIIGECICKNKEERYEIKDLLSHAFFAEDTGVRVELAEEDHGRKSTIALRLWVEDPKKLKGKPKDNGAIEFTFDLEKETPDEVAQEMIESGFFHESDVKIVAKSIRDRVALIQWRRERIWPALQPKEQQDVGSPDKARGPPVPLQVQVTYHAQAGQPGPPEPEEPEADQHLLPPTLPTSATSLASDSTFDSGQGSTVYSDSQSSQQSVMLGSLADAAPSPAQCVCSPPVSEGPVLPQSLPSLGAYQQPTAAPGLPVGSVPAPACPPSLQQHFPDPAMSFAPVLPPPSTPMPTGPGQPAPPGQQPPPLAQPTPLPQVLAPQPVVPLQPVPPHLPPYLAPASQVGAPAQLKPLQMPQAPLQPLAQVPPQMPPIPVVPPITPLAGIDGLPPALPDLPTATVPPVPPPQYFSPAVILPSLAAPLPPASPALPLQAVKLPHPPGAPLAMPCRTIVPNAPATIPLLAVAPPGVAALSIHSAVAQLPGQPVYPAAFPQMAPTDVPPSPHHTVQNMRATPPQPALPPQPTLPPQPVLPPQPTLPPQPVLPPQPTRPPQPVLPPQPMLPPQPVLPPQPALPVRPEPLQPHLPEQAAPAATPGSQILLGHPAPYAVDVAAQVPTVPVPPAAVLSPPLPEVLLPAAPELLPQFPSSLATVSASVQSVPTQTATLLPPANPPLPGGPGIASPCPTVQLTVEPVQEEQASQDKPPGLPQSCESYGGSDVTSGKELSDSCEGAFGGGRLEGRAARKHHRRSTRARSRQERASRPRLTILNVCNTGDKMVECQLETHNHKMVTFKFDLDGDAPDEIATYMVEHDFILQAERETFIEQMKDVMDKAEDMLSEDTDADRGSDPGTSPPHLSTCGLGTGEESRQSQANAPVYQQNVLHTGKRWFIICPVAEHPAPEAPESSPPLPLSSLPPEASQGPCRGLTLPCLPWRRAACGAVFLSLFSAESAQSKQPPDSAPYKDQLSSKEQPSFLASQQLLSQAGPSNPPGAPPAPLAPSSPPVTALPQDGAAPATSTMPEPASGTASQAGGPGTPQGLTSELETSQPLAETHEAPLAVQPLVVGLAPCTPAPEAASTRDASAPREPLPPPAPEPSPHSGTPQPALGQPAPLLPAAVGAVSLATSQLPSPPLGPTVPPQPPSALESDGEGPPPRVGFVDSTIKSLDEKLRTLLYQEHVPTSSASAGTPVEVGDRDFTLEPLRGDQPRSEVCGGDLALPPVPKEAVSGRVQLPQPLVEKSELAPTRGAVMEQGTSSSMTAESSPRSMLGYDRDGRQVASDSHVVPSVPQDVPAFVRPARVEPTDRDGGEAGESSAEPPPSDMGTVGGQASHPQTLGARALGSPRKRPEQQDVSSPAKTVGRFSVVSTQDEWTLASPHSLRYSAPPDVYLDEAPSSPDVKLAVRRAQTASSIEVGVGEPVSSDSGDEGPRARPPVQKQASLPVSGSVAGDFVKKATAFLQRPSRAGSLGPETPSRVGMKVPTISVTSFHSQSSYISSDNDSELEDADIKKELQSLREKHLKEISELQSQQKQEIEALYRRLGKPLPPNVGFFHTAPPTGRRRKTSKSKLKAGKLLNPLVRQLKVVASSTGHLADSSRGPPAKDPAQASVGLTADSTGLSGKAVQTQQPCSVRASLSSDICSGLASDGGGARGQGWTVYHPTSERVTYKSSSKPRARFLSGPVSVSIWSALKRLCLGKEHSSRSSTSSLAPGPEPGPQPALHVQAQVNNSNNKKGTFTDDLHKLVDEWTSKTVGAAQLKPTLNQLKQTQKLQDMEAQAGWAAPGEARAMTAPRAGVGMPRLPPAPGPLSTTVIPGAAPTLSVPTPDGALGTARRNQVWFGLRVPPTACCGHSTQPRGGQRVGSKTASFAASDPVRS

[12] = molecular target: CDK9/CycT1 (Homo sapiens, UniProt P50750)
[13] = molecular target: FES (Homo sapiens, UniProt P07332)
[14] = molecular target: GRK6 (Homo sapiens, UniProt P43250)
[15] = molecular target: MUSK (Homo sapiens, UniProt O15146)
[16] = molecular target: RPS6KA4 (Homo sapiens, UniProt O75676)
[17] = molecular target: BLK (Homo sapiens, UniProt P51451)
[18] = molecular target: MEK2 (Homo sapiens, UniProt P36507)
[19] = molecular target: DAPK2 (Homo sapiens, UniProt Q9UIK4)
[20] = molecular target: RPS6KA5 (Homo sapiens, UniProt O75582)
Chain of RPS6KA5 (O75582 whole entry): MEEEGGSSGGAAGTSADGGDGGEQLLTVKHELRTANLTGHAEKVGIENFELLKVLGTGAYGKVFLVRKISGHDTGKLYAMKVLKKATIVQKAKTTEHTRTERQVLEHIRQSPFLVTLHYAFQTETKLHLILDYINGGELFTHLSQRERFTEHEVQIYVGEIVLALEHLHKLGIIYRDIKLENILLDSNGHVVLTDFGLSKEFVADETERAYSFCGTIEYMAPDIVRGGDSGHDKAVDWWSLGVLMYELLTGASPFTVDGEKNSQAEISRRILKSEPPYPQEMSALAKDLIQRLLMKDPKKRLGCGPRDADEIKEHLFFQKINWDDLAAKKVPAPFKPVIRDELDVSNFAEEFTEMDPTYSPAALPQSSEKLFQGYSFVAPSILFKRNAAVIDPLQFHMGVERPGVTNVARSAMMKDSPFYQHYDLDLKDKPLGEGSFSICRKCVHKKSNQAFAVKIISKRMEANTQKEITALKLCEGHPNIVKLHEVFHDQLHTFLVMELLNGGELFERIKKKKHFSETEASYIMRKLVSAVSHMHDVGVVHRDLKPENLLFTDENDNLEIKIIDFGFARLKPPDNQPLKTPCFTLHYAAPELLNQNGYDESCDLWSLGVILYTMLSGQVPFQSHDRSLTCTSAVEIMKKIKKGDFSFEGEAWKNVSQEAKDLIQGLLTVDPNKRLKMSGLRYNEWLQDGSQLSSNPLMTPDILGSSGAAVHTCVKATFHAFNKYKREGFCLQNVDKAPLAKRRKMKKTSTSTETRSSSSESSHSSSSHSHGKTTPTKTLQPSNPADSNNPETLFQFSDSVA

[21] = molecular target: NEK3 (Homo sapiens, UniProt P51956)
Chain of NEK3 (P51956 whole entry): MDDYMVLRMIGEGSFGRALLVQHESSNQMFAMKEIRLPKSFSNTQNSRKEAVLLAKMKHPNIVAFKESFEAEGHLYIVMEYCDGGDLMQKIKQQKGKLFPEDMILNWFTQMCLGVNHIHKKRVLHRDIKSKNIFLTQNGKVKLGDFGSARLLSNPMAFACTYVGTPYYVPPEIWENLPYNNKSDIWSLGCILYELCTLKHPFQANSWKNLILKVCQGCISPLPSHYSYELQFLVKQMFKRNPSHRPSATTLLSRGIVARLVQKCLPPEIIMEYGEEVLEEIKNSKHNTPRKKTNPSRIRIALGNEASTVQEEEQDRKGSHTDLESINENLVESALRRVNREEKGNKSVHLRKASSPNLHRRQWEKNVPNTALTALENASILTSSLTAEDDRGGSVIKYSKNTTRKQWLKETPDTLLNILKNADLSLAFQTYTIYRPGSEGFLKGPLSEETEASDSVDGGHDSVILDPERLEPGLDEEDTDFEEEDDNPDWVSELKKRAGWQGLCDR

[22] = molecular target: SYK (Homo sapiens, UniProt P43405)
[23] = molecular target: PAK6 (Homo sapiens, UniProt Q9NQU5)
Chain of PAK6 (Q9NQU5 whole entry): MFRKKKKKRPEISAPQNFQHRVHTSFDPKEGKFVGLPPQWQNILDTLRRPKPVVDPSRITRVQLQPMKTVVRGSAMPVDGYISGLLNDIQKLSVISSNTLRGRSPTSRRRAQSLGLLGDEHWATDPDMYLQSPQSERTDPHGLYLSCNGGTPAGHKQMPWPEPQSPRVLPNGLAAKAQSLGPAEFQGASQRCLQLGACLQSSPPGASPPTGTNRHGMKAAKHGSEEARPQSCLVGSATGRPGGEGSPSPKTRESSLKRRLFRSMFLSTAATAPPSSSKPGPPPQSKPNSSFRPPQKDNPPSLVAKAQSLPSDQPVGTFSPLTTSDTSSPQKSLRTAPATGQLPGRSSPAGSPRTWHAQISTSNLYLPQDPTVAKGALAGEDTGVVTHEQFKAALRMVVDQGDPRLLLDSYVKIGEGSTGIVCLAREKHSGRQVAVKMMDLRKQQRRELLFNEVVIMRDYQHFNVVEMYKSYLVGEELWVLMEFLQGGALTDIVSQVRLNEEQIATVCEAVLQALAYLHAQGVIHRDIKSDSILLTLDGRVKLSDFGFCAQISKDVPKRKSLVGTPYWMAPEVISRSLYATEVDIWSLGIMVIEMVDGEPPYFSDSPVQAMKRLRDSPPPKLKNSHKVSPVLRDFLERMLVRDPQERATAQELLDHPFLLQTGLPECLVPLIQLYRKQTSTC

[24] = molecular target: NDR1 (Homo sapiens, UniProt Q15208)
[25] = molecular target: PLK1 (Homo sapiens, UniProt P53350)
[26] = molecular target: CDK11B (Homo sapiens, UniProt P21127)
[27] = molecular target: SRMS (Homo sapiens, UniProt Q9H3Y6)
[28] = molecular target: MERTK (Homo sapiens, UniProt Q12866)
[29] = molecular target: FLT3 (Homo sapiens, UniProt P36888)
[30] = molecular target: AurC (Homo sapiens, UniProt Q9UQB9)
[31] = molecular target: MAP3K11 (Homo sapiens, UniProt Q16584)

Chain of PIM2 (Q9P1W9 whole entry): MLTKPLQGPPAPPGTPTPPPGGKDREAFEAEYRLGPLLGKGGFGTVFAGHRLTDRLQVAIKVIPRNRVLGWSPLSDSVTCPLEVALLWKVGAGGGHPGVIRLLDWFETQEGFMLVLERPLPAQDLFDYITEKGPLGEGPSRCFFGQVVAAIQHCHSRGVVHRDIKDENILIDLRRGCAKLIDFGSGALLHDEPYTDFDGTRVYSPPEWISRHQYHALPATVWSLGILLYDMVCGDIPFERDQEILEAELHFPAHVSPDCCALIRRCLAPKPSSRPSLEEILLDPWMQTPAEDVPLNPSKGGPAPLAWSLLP

- 21c Remaining activity, percent of control [%] [1]: 92.8%
- 21c Remaining activity, percent of control [%] [2]: 70.1%
- 21c Remaining activity, percent of control [%] [3]: 103.1%
- 21c Remaining activity, percent of control [%] [4]: 92.1%
- 21c Remaining activity, percent of control [%] [5]: 81.0%
- 21c Remaining activity, percent of control [%] [6]: 96.1%
- 21c Remaining activity, percent of control [%] [7]: 78.6%
- 21c Remaining activity, percent of control [%] [8]: 105.5%
- 21c Remaining activity, percent of control [%] [9]: 93.9%
- 21c Remaining activity, percent of control [%] [10]: 92.9%
- 21c Remaining activity, percent of control [%] [11]: 94.8%
- 21c Remaining activity, percent of control [%] [12]: 85.7%
- 21c Remaining activity, percent of control [%] [13]: 100.7%
- 21c Remaining activity, percent of control [%] [14]: 87.6%
- 21c Remaining activity, percent of control [%] [15]: 83.0%
- 21c Remaining activity, percent of control [%] [16]: 92.5%
- 21c Remaining activity, percent of control [%] [17]: 98.6%
- 21c Remaining activity, percent of control [%] [18]: 90.2%
- 21c Remaining activity, percent of control [%] [19]: 100.3%
- 21c Remaining activity, percent of control [%] [20]: 108.9%
- 21c Remaining activity, percent of control [%] [21]: 94.1%
- 21c Remaining activity, percent of control [%] [22]: 99.7%
- 21c Remaining activity, percent of control [%] [23]: 95.0%
- 21c Remaining activity, percent of control [%] [24]: 86.7%
- 21c Remaining activity, percent of control [%] [25]: 89.3%
- 21c Remaining activity, percent of control [%] [26]: 91.2%
- 21c Remaining activity, percent of control [%] [27]: 81.5%
- 21c Remaining activity, percent of control [%] [28]: 44.2%
- 21c Remaining activity, percent of control [%] [29]: 103.4%
- 21c Remaining activity, percent of control [%] [30]: 90.2%
- 21c Remaining activity, percent of control [%] [31]: 45.8%
SMILES: O=C1NCCCCCNc2nc(c3ccccc3n2)Nc2cc1[nH]n2 [21c, (Z)-3^1H-2,5,11-triaza-1(4,2)-quinazolina-3(3,5)-pyrazolacycloundecaphan-4-one]

Reference: publication doi:10.1101/2023.10.20.563248v1 (biorxiv, 2023)
